Assay type in all cases: in vivo
Test [1] has as its system BALB-NeuT mouse breast tumor. Kind of test: BALB-NeuT transgenic mouse mammary cancer model, tumor free curve. As to conditions: Mantal-Cox test. As to the method:
(§1) BALB/c and C57BL/6 mice were from Charles River Laboratories or Jackson Laboratories. For the tumor challenge, 5×10^3 4T1 cells were injected in the mammary pad at the right flank of the mice, or 1×10^5 B16F10 cells were injected subcutaneously in the right flank of the mice. Tumor volumes were measured and calculated by (Length^2×Width/2) daily after the size was larger than 1 mm^3. Breeding pairs of BALB-neuT and FVB-neuN (FVB/N-Tg (MMTVneu) 202Mul) mice were obtained from Joseph Lustgarten, Mayo Clinic Arizona. Mice were monitored weekly for the tumor incidence after tumor size reached 1 mm^3. All experiments were performed in accordance with protocols approved by the Institutional Animal Care and Use Committee of Arizona State University. Statistical significance of differences was analyzed by a Student t-test.
Mice were genetically immunized by Gene Gun at 4-6 weeks with 100 ng of antigen(s) in pCMVi vectors, boosted twice (3-4 days apart) at 9-10 weeks with 1 μg of the same antigen(s), and boosted once at 13-14 weeks with protein. Genetic immunizations included adjuvants LTAB (0.5 μg) and CpG 2216 (5 μg). Protein boosts were 50 μg of KLH conjugated FS peptides (SMC1A-1^4, n=32; RBM FS, n=22; SLAIN2 FS, n=14 and pool of three FS neoantigens, n=37). The protein boost included 50 μg CpG 2216 and 50 μl alum in 100 μl PBS as the adjuvant. […]

A further test deals with 4T1 cells. Kind of test: 4T1-BALB/c mouse breast tumor model, immunization and tumor challenge. Conditions: for tumor retardation: gene vaccines, three immunizations, subcutaneous 2×10^3 4T1 cells, vs mock. As to the method: as §1, with “For the tumor challenge, 5×10^3 4T1 cells were injected in the mammary pad at the right flank of the mice, or 1×10^5 B16F10 cells were injected subcutaneously in the right flank of the mice.” left out
The DNA fragments encoding FS peptides were cloned as a C-terminal fusion into the genetic immunization vectors pCMVi-UB (26) and pCMVi-LSrCOMPTT (27, 28) with the Bgl II and Hind III and mixed with 1:1 ratio as the vaccine antigen. Three adjuvants were encoded by genetic immunization vectors. The pCMVi-mGM-CSF vector expresses the adjuvant mouse granulocyte/macrophage colony-stimulating factor (mGM-CSF) under control of the human cytomegalovirus (CMV) promoter (27). […]. Vectors pCMVi-UB, pCMVi-LSrCOMPTT, pCMVi-LTA (also called pCMVi-LS-LTA-R192G) and pCMVi-LTB are available from the PSI:Biology-Materials Repository DNASU (dnasu.org) at Arizona State University. Additional adjuvants were the class A CpG 2216 single-stranded oligodeoxynucleotide obtained from Sigma and alum from Pierce.
Bullets for biolistic genetic immunization used the gold micronanoplex approach and were prepared as described (30) with the following changes. Two grams of 1-micron gold was used. Prior to addition of N-hydroxysuccinimide and N-(3-dimethylaminopropyl)-N′-ethylcarbodiimide hydrochloride, the gold was resuspended in 20 mL of a 0.1 M solution of 2-(N-morpholino) ethanesulfonic acid (MES), pH 6.0. DNA-gold micronanoplexes were prepared by combining, per bullet, 57 μL of cysteamine-gold solution with precipitated DNA (≤10 μg) that had been resuspended in ≤15 μL of water, and then vortexing for 10 min. To the DNA-cysteamine-gold was added 6 μL/bullet of a freshly made solution of PEI-micron gold (167 mg/mL in 0.1 M MES, pH 6, without NaCl). The pelleted micronanoplexes were washed with ethanol prior to resuspension in n-butanol (55 μL/bullet), followed by bullet formation under nitrogen gas.
For the three MS FS experiments, all mice (n=10 per group) were genetically immunized in the ear by Gene Gun at 8 weeks of age (2 shots/mouse, 60 ng pooled antigens plus 0.25 μg LTAB and 2.5 μg CpG2216 as the adjuvant for each shot) and boosted twice (two days apart) in three weeks with 1 μg pooled antigens plus the same adjuvants dosage. All mice were boosted again in two weeks with 50 μg KLH conjugated MS FS peptides with 50 μg CpG 2216 and 50 ul alum in total 100 ul PBS. […]

The test system of another test is B16-F10 cells. The test can be described thus: B16F10-C57BL6 mouse melanoma tumor model, genetic immunization and tumor challenge. As to conditions: B16F10 melanoma in C57BL6, gene gun immunization, 1×10^5 cells, vs mock/control antigen CPV 172.

On to IPRMQPQASANHCQLLKVMVA [SLAIN2 FS], for which the “p, tumor free curve, 3FS pool vs individual FS antigen group” value in test [1] is listed as 0.43. Further, the tumor retardation entry in the test with 4T1 cells was “conferred tumor retardation”.

On to AVLLMCQLYQPWMCKEYYRLL [ZDHHC17 FS], for which the tumor retardation result in the test on 4T1 cells is “did not”.

With “TAIIGPNGSGCSGVYCHEEPQGEDSSV [mSMC1A-1^4]”, the tumor growth result in the test with B16-F10 cells is listed as “significant retardation of tumor growth”. Moreover, the 4T1 tumor growth entry in the test with 4T1 cells (BALB/c, gene gun plus KLH-peptide boost, 5×10^3 4T1 cells, vs empty vector/KLH) is on record as “significantly retarded the 4T1 tumor growth”. Further, the “T-cell dependence of protection” value in the test on 4T1 cells (depletion of CD8 or CD4 T-cells in immunized BALB/c mice, 4T1) is recorded as “CD8 T cell dependent”.
